This note sets out measurements from patent US20240043404A1 (AbbVie Inc., priority 2009, published 2024).

The first experiment has as its system RS4;11 cells. Nature of the experiment: RS4;11 cell viability assay (CellTiter Glo).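 Note: acute lymphoblastic leukemia line RS4,11, EC50 derived from percentage of viable cells after treatment relative to untreated controls, cell killing taken as a measure of Bcl-2 inhibition.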 Format: cell-based, human. Conditions: Homo sapiens, RS4-11, 48 h, 50,000 cells per well, 10% human serum, 48 hours; read-out: RS4; 11 EC50 Values.
Protocol: The acute lymphoblastic leukemia (ALL) cell line RS4;11 was used as the primary human cell line to assess the cellular activity of Bcl-2 selective agents in vitro and their efficacy in vivo.
Cell cytotoxicity EC50 values were assessed using CellTiter Glo (Promega) according to the manufacturer's recommendations. The EC50 values were determined as a percentage of viable cells following treatment compared to the untreated control cells.
Take `C#Cc1cc(S(=O)(=O)NC(=O)c2ccc(N3CCN(CC4=C(c5ccc(Cl)cc5)CC(C)(C)CC4)CC3)cc2Oc2cnc3[nH]ccc3c2)cnc1OCC1CCOCC1` [Example 69, 4-(4-{[2-(4-chlorophenyl)-4,4-dimethylcyclohex-1-en-1-yl]methyl}piperazin-1-yl)-N-{[5-ethynyl-6-(tetrahydro-2H-pyran-4-ylmethoxy)pyridin-3-yl]sulfonyl}-2-(1H-pyrrolo[2,3-b]pyridin-5-yloxy)benzamide]: the EC50 turned out to be 1720 nM.
On the same count and under the same terms, for `CC1(C)CCC(CN2CCN(c3ccc(C(=O)NS(=O)(=O)c4ccc(NC5CCN([C@H]6CCOC[C@H]6F)CC5)c([N+](=O)[O-])c4)c(Oc4cnc5[nH]ccc5c4)c3)CC2)=C(c2ccc(Cl)cc2)C1` (relative stereo) [Example 115, 4-(4-{[2-(4-chlorophenyl)-4,4-dimethylcyclohex-1-en-1-yl]methyl}piperazin-1-yl)-N-{[4-({1-[cis-3-fluorotetrahydro-2H-pyran-4-yl]piperidin-4-yl}amino)-3-nitrophenyl]sulfonyl}-2-(1H-pyrrolo[2,3-b]pyridin-5-yloxy)benzamide] the value was 11.8 nM; for `CC1(C)CCC(CN2CCN(c3ccc(C(=O)NS(=O)(=O)c4ccc(NC5CCC(NC6CC6(F)F)CC5)c([N+](=O)[O-])c4)c(Oc4cnc5[nH]ccc5c4)c3)CC2)=C(c2ccc(Cl)cc2)C1` (centres unmarked) [Example 349, 4-(4-{[2-(4-chlorophenyl)-4,4-dimethylcyclohex-1-en-1-yl]methyl}piperazin-1-yl)-N-{[4-({4-[(2,2-difluorocyclopropyl)amino]cyclohexyl}amino)-3-nitrophenyl]sulfonyl}-2-(1H-pyrrolo[2,3-b]pyridin-5-yloxy)benzamide], 23.1 nM; for `CC1(C)CCC(CN2CCN(c3ccc(C(=O)NS(=O)(=O)c4ccc(OCC5CCOCC5)c(C(N)=O)c4)c(Oc4cnc5[nH]ccc5c4)c3)CC2)=C(c2ccc(Cl)cc2)C1` [Example 38, N-{[3-(aminocarbonyl)-4-(tetrahydro-2H-pyran-4-ylmethoxy)phenyl]sulfonyl}-4-(4-{[2-(4-chlorophenyl)-4,4-dimethylcyclohex-1-en-1-yl]methyl}piperazin-1-yl)-2-(1H-pyrrolo[2,3-b]pyridin-5-yloxy)benzamide], 3510 nM.
As for `COCCN1CCOC(CNc2ccc(S(=O)(=O)NC(=O)c3ccc(N4CCN(CC5=C(c6ccc(Cl)cc6)CC(C)(C)CC5)CC4)cc3Oc3cnc4[nH]ccc4c3)cc2[N+](=O)[O-])C1` (centres unmarked) [Example 135, 4-(4-{[2-(4-chlorophenyl)-4,4-dimethylcyclohex-1-en-1-yl]methyl}piperazin-1-yl)-N-{[4-({[4-(2-methoxyethyl)morpholin-2-yl]methyl}amino)-3-nitrophenyl]sulfonyl}-2-(1H-pyrrolo[2,3-b]pyridin-5-yloxy)benzamide], the EC50 stood at 2.37 nM.
For the compound `CC1(C)CCC(CN2CCN(c3ccc(C(=O)NS(=O)(=O)c4ccc(NC5CCN(C(C)(C)C)CC5)c(S(=O)(=O)C(F)(F)F)c4)c(Oc4cnc5[nH]ccc5c4)c3)CC2)=C(c2ccc(Cl)cc2)C1` [Example 240, N-({4-[(1-tert-butylpiperidin-4-yl)amino]-3-[(trifluoromethyl)sulfonyl]phenyl}sulfonyl)-4-(4-{[2-(4-chlorophenyl)-4,4-dimethylcyclohex-1-en-1-yl]methyl}piperazin-1-yl)-2-(1H-pyrrolo[2,3-b]pyridin-5-yloxy)benzamide], the EC50 is 17.3 nM.
The same measure, in the same setting: to `CN1CCC(Nc2ccc(S(=O)(=O)NC(=O)c3ccc(N4CCN(CC5=C(c6ccc(Cl)cc6)CC(C)(C)CC5)CC4)cc3Oc3ccc4[nH]ccc4c3)cc2[N+](=O)[O-])CC1` [Example 90, 4-(4-{[2-(4-chlorophenyl)-4,4-dimethylcyclohex-1-en-1-yl]methyl}piperazin-1-yl)-2-(1H-indol-5-yloxy)-N-({4-[(1-methylpiperidin-4-yl)amino]-3-nitrophenyl}sulfonyl)benzamide] belongs 63 nM; to `CC1(C)CCC(CN2CCN(c3ccc(C(=O)NS(=O)(=O)c4ccc(NC[C@H]5CC[C@H](C#N)CC5)c([N+](=O)[O-])c4)c(Oc4cnc5[nH]ccc5c4)c3)CC2)=C(c2ccc(Cl)cc2)C1` [Example 276, 4-(4-{[2-(4-chlorophenyl)-4,4-dimethylcyclohex-1-en-1-yl]methyl}piperazin-1-yl)-N-[(4-{[(trans-4-cyanocyclohexyl)methyl]amino}-3-nitrophenyl)sulfonyl]-2-(1H-pyrrolo[2,3-b]pyridin-5-yloxy)benzamide], 3.5 nM.
On the same count and under the same terms, to `CC1(C)CCC(CN2CCN(c3ccc(C(=O)NS(=O)(=O)c4ccc(N[C@@H]5CCN(C6CCOC(C)(C)C6)C5)c([N+](=O)[O-])c4)c(Oc4cnc5[nH]ccc5c4)c3)CC2)=C(c2ccc(Cl)cc2)C1` (stereo partly drawn) [Example 131, 4-(4-{[2-(4-chlorophenyl)-4,4-dimethylcyclohex-1-en-1-yl]methyl}piperazin-1-yl)-N-[(4-{[(3R)-1-(2,2-dimethyltetrahydro-2H-pyran-4-yl)pyrrolidin-3-yl]amino}-3-nitrophenyl)sulfonyl]-2-(1H-pyrrolo[2,3-b]pyridin-5-yloxy)benzamide] belongs 12.7 nM.
Same read-out and setting: to `COCCOCCS(=O)(=O)c1ccc(S(=O)(=O)NC(=O)c2ccc(N3CCN(CC4=C(c5ccc(Cl)cc5)CC(C)(C)CC4)CC3)cc2Oc2cnc3[nH]ccc3c2)cc1Cl` [Example 58, N-[(3-chloro-4-{[2-(2-methoxyethoxy)ethyl]sulfonyl}phenyl)sulfonyl]-4-(4-{[2-(4-chlorophenyl)-4,4-dimethylcyclohex-1-en-1-yl]methyl}piperazin-1-yl)-2-(1H-pyrrolo[2,3-b]pyridin-5-yloxy)benzamide] belongs over 5000 nM; to `CC1(C)CCC(CN2CCN(c3ccc(C(=O)NS(=O)(=O)c4ccc(OCCOC5CCOC5)c([N+](=O)[O-])c4)c(Oc4cnc5[nH]ccc5c4)c3)CC2)=C(c2ccc(Cl)cc2)C1` (centres unmarked) [Example 275, 4-(4-{[2-(4-chlorophenyl)-4,4-dimethylcyclohex-1-en-1-yl]methyl}piperazin-1-yl)-N-({3-nitro-4-[2-(tetrahydrofuran-3-yloxy)ethoxy]phenyl}sulfonyl)-2-(1H-pyrrolo[2,3-b]pyridin-5-yloxy)benzamide], 143 nM; to `CC1(C)CCC(CN2CCN(c3ccc(C(=O)NS(=O)(=O)c4ccc(NCC5CN(C6COC6)CCO5)c([N+](=O)[O-])c4)c(Oc4cnc5[nH]ccc5c4)c3)CC2)=C(c2ccc(Cl)cc2)C1` (centres unmarked) [Example 217, 4-(4-{[2-(4-chlorophenyl)-4,4-dimethylcyclohex-1-en-1-yl]methyl}piperazin-1-yl)-N-{[3-nitro-4-({[4-(oxetan-3-yl)morpholin-2-yl]methyl}amino)phenyl]sulfonyl}-2-(1H-pyrrolo[2,3-b]pyridin-5-yloxy)benzamide], 1.55 nM.
Regarding `O=C(NS(=O)(=O)c1ccc(NCC2CCOCC2)c([N+](=O)[O-])c1)c1ccc(N2CCN(Cc3ccccc3-c3ccc(Cl)cc3)CC2)cc1Oc1cnc2[nH]ccc2c1` [Example 1, 4-{4-[(4′-chloro-1,1′-biphenyl-2-yl)methyl]piperazin-1-yl}-N-({3-nitro-4-[(tetrahydro-2H-pyran-4-ylmethyl)amino]phenyl}sulfonyl)-2-(1H-pyrrolo[2,3-b]pyridin-5-yloxy)benzamide], the EC50 came out at 712 nM.
The same measure, in the same setting: for `O=C(NS(=O)(=O)c1ccc(NCCCN2CCOCC2)c([N+](=O)[O-])c1)c1ccc(N2CCN(Cc3ccccc3-c3ccc(Cl)cc3)CC2)cc1Oc1ccc2[nH]ccc2c1` [Example 88, 4-{4-[(4′-chloro-1,1′-biphenyl-2-yl)methyl]piperazin-1-yl}-2-(1H-indol-5-yloxy)-N-({4-[(3-morpholin-4-ylpropyl)amino]-3-nitrophenyl}sulfonyl)benzamide] the value was 447 nM; for `CC1(C)CCC(CN2CCN(c3ccc(C(=O)NS(=O)(=O)c4ccc(N[C@@H]5CCN(C6COC6)C5)c([N+](=O)[O-])c4)c(Oc4cnc5[nH]ccc5c4)c3)CC2)=C(c2ccc(Cl)cc2)C1` [Example 224, 4-(4-{[2-(4-chlorophenyl)-4,4-dimethylcyclohex-1-en-1-yl]methyl}piperazin-1-yl)-N-[(3-nitro-4-{[(3R)-1-(oxetan-3-yl)pyrrolidin-3-yl]amino}phenyl)sulfonyl]-2-(1H-pyrrolo[2,3-b]pyridin-5-yloxy)benzamide], 13.9 nM.
Take `CC1(C)CCC(CN2CCN(c3ccc(C(=O)NS(=O)(=O)c4ccc(N[C@H]5CCN(C6CCOC(C)(C)C6)C5)c([N+](=O)[O-])c4)c(Oc4cnc5[nH]ccc5c4)c3)CC2)=C(c2ccc(Cl)cc2)C1` (stereo partly drawn) [Example 133, 4-(4-{[2-(4-chlorophenyl)-4,4-dimethylcyclohex-1-en-1-yl]methyl}piperazin-1-yl)-N-[(4-{[(3S)-1-(2,2-dimethyltetrahydro-2H-pyran-4-yl)pyrrolidin-3-yl]amino}-3-nitrophenyl)sulfonyl]-2-(1H-pyrrolo[2,3-b]pyridin-5-yloxy)benzamide]: the EC50 was 31.9 nM.
As to `CN1CCC(Nc2ccc(S(=O)(=O)NC(=O)c3ccc(N4CCN(CC5=C(c6ccc(Cl)cc6)CC(C)(C)CC5)CC4)cc3Oc3cccc4[nH]c5ccccc5c34)cc2[N+](=O)[O-])CC1` [Example 7, 2-(9H-carbazol-4-yloxy)-4-(4-{[2-(4-chlorophenyl)-4,4-dimethylcyclohex-1-en-1-yl]methyl}piperazin-1-yl)-N-({4-[(1-methylpiperidin-4-yl)amino]-3-nitrophenyl}sulfonyl)benzamide], the EC50 came to 192 nM.

The experiment is the same for the next values; noted with them: Homo sapiens, RS4-11, Table 5, direct comparison Z=N with corresponding analogs Z=C; read-out: RS4; 11 EC50.
With `CN1CCC(Nc2ccc(S(=O)(=O)NC(=O)c3ccc(N4CCN(CC5=C(c6ccc(Cl)cc6)CC(C)(C)CC5)CC4)cc3Oc3ccc4[nH]ccc4c3)cc2[N+](=O)[O-])CC1` [Example 90, 4-(4-{[2-(4-chlorophenyl)-4,4-dimethylcyclohex-1-en-1-yl]methyl}piperazin-1-yl)-2-(1H-indol-5-yloxy)-N-({4-[(1-methylpiperidin-4-yl)amino]-3-nitrophenyl}sulfonyl)benzamide], the EC50 worked out at 63 nM.
`O=C(NS(=O)(=O)c1ccc(NCC2CCOCC2)c([N+](=O)[O-])c1)c1ccc(N2CCN(Cc3ccccc3-c3ccc(Cl)cc3)CC2)cc1Oc1cnc2[nH]ccc2c1` [Example 1, 4-{4-[(4′-chloro-1,1′-biphenyl-2-yl)methyl]piperazin-1-yl}-N-({3-nitro-4-[(tetrahydro-2H-pyran-4-ylmethyl)amino]phenyl}sulfonyl)-2-(1H-pyrrolo[2,3-b]pyridin-5-yloxy)benzamide]: the EC50 is 712 nM.

The same experiment, now with this note: Table 5, direct comparison Z=N with corresponding analogs Z=C; read-out: RS4; 11 EC50.
On to “4-{4-[(4′-chloro-1,1′-biphenyl-2-yl)methyl]piperazin-1-yl}-2-(1H-indol-5-yloxy)-N-({3-nitro-4-[(tetrahydro-2H-pyran-4-ylmethyl)amino]phenyl}sulfonyl) benzamide [Example 87]”, for which the EC50 came to 1180 nM.
